Results from patent publication US7183255B2, “Method for stabilizing blood pressure in hemodialysis subjects” (Intradialytic Pharmaceuticals, priority 2003, dated 2007).
Entries after “also recorded” stand apart in the source; their conditions may differ.

Legend:
Assay type in all cases: in vivo, human
[1] = Plasma vasopressin during constant vasopressin infusion in normal subjects and ESRD patients (Example 3, FIG. 8); conditions: normal subjects vs patients with ESRD
Description: Plasma vasopressin concentration. Vasopressin in plasma was determined as previously described (Landry, D. W., H. R. Levin, et al. (1997). Circulation 95(5): 1122–5).
Administration of vasopressin. In eight normal subjects and eight patients with ESRD off dialysis, 8-arginine vasopressin (vasopressin, American Pharmaceutical Partners, Schaumberg, Ill.) in normal saline was administered through an antecubital intravenous line. In eight patients with ESRD during hemodialysis, vasopressin was infused through the venous (blood return) limb of the dialysis circuit throughout the dialysis session at a rate of 0.15 or 0.3 mU·kg^−1·min^−1.
Effect of vasopressin administration on its plasma concentration in normal subjects and Patients with ESRD. Because the effect of renal failure on the clearance of plasma vasopressin has remained unresolved (Shade, R. E. and L. Share (1976). Endocrinology 99(5): 1199–206; Benmansour, M., M. Rainfray, et al. (1982). Eur J Clin Invest 12(6): 475–80; Argent, N. B., R. Wilkinson, et al. (1992). Clin Sci (Lond) 83(5): 583–7), we administered a constant infusion of hormone to normal subjects and to patients with ESRD and measured plasma levels.

[2] = tested on: ESRD patients during hemodialysis; assay: Similar study of fluid removal by hemodialysis with AVP vs placebo (FIG. 7); conditions: five patients on AVP (FIG. 7)
Description: FIG. 7 depicts greater fluid removal by hemodialysis with AVP.

[3] = tested on: ESRD patients during hemodialysis; assay: Systolic arterial pressure during hemodialysis with AVP infusion vs vehicle, twelve patients (Example 1); conditions: for systolic arterial pressure: dialysis with AVP infused, M ± SD
Description: (§1) Healthy controls and patients with end-stage renal disease (e.g. defined as creatinine clearance of less than 10 ml/min) were studied. The studies were conducted on regularly scheduled hemodialysis days. The duration of hemodialysis remained the same as that prescribed prior to the study period. AVP or placebo (normal saline) was administered at a constant rate of 0.15, 0.3 or o.6 mU/kg/min through a venous line (controls) or through the venous limb of the dialysis circuit (hemodialysis patients). The patient's hemodialysis prescription remained unchanged except for the administration of AVP or placebo. Intradialytic hypotension was treated in the customary manner with the infusion of isotonic and hypertonic fluids.
(§2) Serum AVP levels were determined by a radioimmunoassay technique. Blood pressure was measured with a cuff-type sphygmomanometer at 20 minute intervals.
AVP administration results in a higher intra-dialysis blood pressure. To examine whether vasopressin could help in supporting blood pressure during dialysis, we dialyzed a group of ESRD patients during administration of vehicle or during administration of vasopressin at a dose without pressor effect in normal subjects.
To determine the blood pressure effect of exogenous AVP during dialysis, two dialysis treatments were administered to twelve patients. In one, only the vehicle used to administer AVP was given while in the other treatment, AVP was infused. As shown, systolic arterial pressure decreased more than 10 mm Hg during the control dialysis while it decreased a maximum of 5 mm Hg during the dialysis in which AVP was infused.

[4] = tested on: patients with end-stage renal disease; assay: Systolic arterial pressure during AVP infusion in ESRD patients off dialysis (Example 1); conditions: for systolic arterial blood pressure: ESRD, n=12, M ± SD
Description: as §1, §2
We discovered that patients with ERSD are hypersensitive to vasopressin's pressor action.
The administration of exogenous AVP to patients with ESDR led to the discovery that these patients are hyper-responsive to the vascular effect of this hormone.

[5] = tested on: hypertensive patients with ESRD on chronic hemodialysis; assay: Randomized double-blinded trial of vasopressin vs placebo during hemodialysis with 0.5 kg increased target weight reduction (Example 3); conditions: vasopressin 0.3 mU·kg^−1·min^−1 during dialysis; for Lowest SAP: p=0.02 vs placebo; for Symptomatic hypotensive episodes: one of eleven patients, p=0.001 vs placebo
Description: All patients were studied at regularly scheduled dialysis sessions. Patients underwent conventional hemodialysis with hollow fiber high flux polysulfone dialyzers on volumetric dialysis machines (Cobe Centrysystem 3, Gambro Renal Care Products, Inc., Lakewood, Colo.). Dialysis times were 3.5–4.5 hours. Blood flow was 300–400 mL/min and dialysate was delivered at 600 mL/min. The dialysis bath contained potassium, 2 mEq/L; calcium, 2.5 mEq/L; magnesium, 0.75 mEq/L; and bicarbonate, 40 mEq/L. In those patients who were prescribed dialysate sodium modeling and/or reduced dialysate temperature (35–37° C.) prior to the study, the parameters of these interventions were held constant throughout the study. Ultrafiltration was performed at a constant rate based on the target weight loss for that dialysis session. Oscillometric blood pressure and heart rate measurements were taken at 15–30 minute intervals.
Exclusion criteria for all studies were: 1) active vascular disease, including angina, claudication, transient ischemic events, ischemic colitis and Raynaud's disease, 2) a history of prolonged QT syndrome, 3) a history of orthostatic hypotension and 4) a systolic blood pressure greater than 200 mm Hg and/or a diastolic blood pressure greater than 100 mm Hg. Fluid was administered for pressor support at the discretion of the dialysis staff, blinded to the study drug, on the basis of hypotensive episodes during dialysis. Excess fluid removed was defined as the difference between the baseline prescription weight loss and the actual weight loss achieved during the study hemodialysis.
Hemodialysis-induced fluid removal during vasopressin administration in hypertensive patients. 22 patients with ESRD on chronic hemodialysis and hypertension (defined by a systolic arterial pressure greater than 140 mm Hg or the requirement of anti-hypertensive medications to maintain a lower systolic arterial pressure) were studied. A randomized, controlled and double blinded trial compared the effect of vasopressin (0.3 mU·kg^−1·min^−1) or placebo (normal saline) on the capacity to tolerate a 0.5 kg increase in the target weight reduction specified by the standard dialysis prescription. Patients were studied only if their pre-dialysis weight was within ±1 kg. of the mean pre-dialysis weight of the previous three sessions.
Otherwise the hemodialysis routine was unchanged and its management was left to the health care personnel performing the treatment, who where not involved in the study. The nurse administering the hemodialysis treatment managed hypotensive episodes per routine with administration of normal saline and/or a decrease in ultrafiltration rate. Symptomatic hypotension was identified by the nurse conducting the dialysis and criteria included a sudden drop in systolic arterial pressure associated with one or more of the following: lightheadedness, dizziness, cramping, nausea and vomiting.
Statistical Analyses. Analyses were performed using Statistical Package for the Social Sciences, version 9. Changes in hemodynamic parameters within patients during each session and between sessions were analyzed by repeated measures of ANOVA. Analysis of continuous variables between treatment arms was performed using the Friedman (two-way) analysis of variance. All values are expressed as mean±SE unless otherwise stated. P values of less than […] (two-tailed) were considered statistically significant.
Effect of vasopressin administration during increased hemodialysis-induced luid removal. […]

SMILES: NC(=O)CC[C@@H]1NC(=O)[C@H](Cc2ccccc2)NC(=O)[C@H](Cc2ccc(O)cc2)NC(=O)[C@@H](N)CSSC[C@@H](C(=O)N2CCC[C@H]2C(=O)N[C@@H](CCCN=C(N)N)C(=O)NCC(N)=O)NC(=O)[C@H](CC(N)=O)NC1=O [AVP, 8-arginine vasopressin]
- effect of renal failure on clearance of plasma vasopressin [1]: does not alter the clearance
- blood pressure stability and extra fluid removal [2]: the blood pressure was stable and extra fluid removal was possible
- decrease of systolic arterial pressure during dialysis ([3]; dialysis in which AVP was infused, control dialysis decreased more than 10 mm Hg): ≤ 5 mm Hg
- systolic arterial pressure ([3]; 30 minutes of dialysis): 153 ± 25 mm Hg
- systolic arterial pressure ([3]; 60 minutes of dialysis): 155 ± 29 mm Hg
- systolic arterial pressure ([3]; 90 minutes of dialysis): 149 ± 30 mm Hg
- systolic arterial pressure ([3]; 120 minutes of dialysis): 148 ± 30 mm Hg
- systolic arterial pressure ([3]; 150 minutes of dialysis): 149 ± 31 mm Hg
- systolic arterial pressure ([3]; 180 minutes of dialysis): 149 ± 30 mm Hg
- systolic arterial pressure ([3]; before dialysis, twelve patients): 153 ± 28 mm Hg
- systolic arterial blood pressure ([4]; 30 minutes of AVP infusion): 162 ± 30
- systolic arterial blood pressure ([4]; 60 minutes of AVP infusion): 161 ± 32
- systolic arterial blood pressure ([4]; 90 minutes of AVP infusion): 161 ± 28
- systolic arterial blood pressure ([4]; 120 minutes of AVP infusion): 150 ± 31
- systolic arterial blood pressure ([4]; before infusion (baseline)): 153 ± 28
- pressor action of AVP ([4]; patients with end-stage renal disease, same dose as in normal subjects (FIG. 3B)): increases blood pressure; also recorded: increased systolic arterial blood pressure
- Mean SAP during dialysis ([5]; 11 patients, mean±SE): 145 ± 6 mmHg
- Lowest SAP ([5]; 11 patients, mean±SE, listed as Vasopressin): 130 ± 7 mmHg
- Lowest SAP ([5]; 11 patients, mean±SE, listed as vasopressin): 130±7 mmHg
- Maximum drop in SAP from mean ([5]; 11 patients, mean±SE, p=0.03 vs placebo, listed as Vasopressin): 17 ± 2 mmHg
- Maximum drop in SAP from mean ([5]; 11 patients, mean±SE, p=0.03 vs placebo, listed as vasopressin): 17±2 mmHg
- Symptomatic hypotensive episodes ([5]; listed as Vasopressin): 9 ± 1%
- Symptomatic hypotensive episodes ([5]; listed as vasopressin): 9%
- normal saline administered for pressure support ([5]; p=0.03 vs placebo, FIG. 10A): 40 ± 43 mL
- volume of extra fluid removed during the dialysis above the baseline prescription ([5]; p=0.045 vs. placebo, FIG. 10B): 460 ± 100 mL
